The experiment has as its target T1, TRPA1 (Homo sapiens, UniProt O75762).
T1 construct: full-length myc-tagged TRPA1 cDNA (gift of M. Caterina), transiently expressed in HEK-293 cells; Fura-2 calcium imaging
The experiment in a line: calcium imaging (Fura-2) of HEK-293 cells transiently expressing TRPA1, with vector and mutant controls. The class given is cell-based.

SMILES strings stand for the structures.

As a reminder, the EC50 is the concentration at which the effect is half-maximal.

T1 sequence (O75762 whole entry): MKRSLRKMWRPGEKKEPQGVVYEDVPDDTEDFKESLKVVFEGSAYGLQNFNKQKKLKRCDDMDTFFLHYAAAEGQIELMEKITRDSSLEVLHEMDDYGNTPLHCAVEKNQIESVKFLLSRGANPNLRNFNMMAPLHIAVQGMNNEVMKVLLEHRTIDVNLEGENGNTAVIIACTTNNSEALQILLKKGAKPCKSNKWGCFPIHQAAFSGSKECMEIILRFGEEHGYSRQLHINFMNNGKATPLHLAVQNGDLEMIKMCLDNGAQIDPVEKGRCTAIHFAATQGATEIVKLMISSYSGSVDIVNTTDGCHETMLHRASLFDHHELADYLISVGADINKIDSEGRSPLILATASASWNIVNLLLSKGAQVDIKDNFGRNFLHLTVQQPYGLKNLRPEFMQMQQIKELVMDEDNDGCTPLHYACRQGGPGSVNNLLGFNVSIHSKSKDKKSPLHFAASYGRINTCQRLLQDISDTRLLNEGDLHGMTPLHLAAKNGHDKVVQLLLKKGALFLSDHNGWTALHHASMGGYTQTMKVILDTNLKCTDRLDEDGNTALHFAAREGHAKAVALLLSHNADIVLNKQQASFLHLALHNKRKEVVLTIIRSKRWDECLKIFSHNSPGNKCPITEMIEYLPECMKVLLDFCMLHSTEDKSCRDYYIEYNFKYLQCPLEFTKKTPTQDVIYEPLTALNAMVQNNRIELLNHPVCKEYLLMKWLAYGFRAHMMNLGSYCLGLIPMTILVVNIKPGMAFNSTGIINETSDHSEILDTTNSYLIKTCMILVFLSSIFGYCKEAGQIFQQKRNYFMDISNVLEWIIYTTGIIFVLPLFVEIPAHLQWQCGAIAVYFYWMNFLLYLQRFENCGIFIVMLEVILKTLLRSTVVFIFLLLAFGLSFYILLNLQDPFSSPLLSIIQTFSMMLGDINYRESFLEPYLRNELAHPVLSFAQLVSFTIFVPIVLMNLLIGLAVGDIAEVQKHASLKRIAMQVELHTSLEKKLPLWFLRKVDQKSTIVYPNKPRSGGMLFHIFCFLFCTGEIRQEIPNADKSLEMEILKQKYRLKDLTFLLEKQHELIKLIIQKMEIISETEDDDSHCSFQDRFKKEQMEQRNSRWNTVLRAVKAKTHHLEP

For the compound `CCCCCC(O)C=CC=O` (stereo not shown) [4-HNE], the EC50 was 48 µM.
